We go through 26 compounds from EP1981504B1, “THIADIAZOLE DERIVATIVES FOR THE TREATMENT OF NEURO DEGENERATIVE DISEASES” (NV reMYND, priority 2006, dated 2007).

This experiment relates to M17-SYNwt cells. As to the kind of experiment: α-synuclein cytotoxicity assay (LDH leakage from paraquat-treated α-synuclein over-expressing neuroblastoma cells). In kind it is cell-based, human. The note with it: paraquat 32 mM, 40 hours, LDH release; for EC50: Homo sapiens, Neuroblastoma cell; for %I: percent inhibition of synuclein cytotoxicity at most effective concentration of test compound, relative to untreated paraquat cells. Summed up: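 M17 neuroblastoma cells over-expressing wild-type α-synuclein were challenged with paraquat, and cytotoxicity was read as LDH release. Protection was expressed as percent reduction of paraquat-induced LDH release relative to untreated paraquat cells and control cells. Actives were retested in 10-point duplicate dose responses.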

Converted amounts (≈) assume the structure as drawn.

Regarding `O=C(c1cccc(Cl)c1)N1CCN(c2nc(Cc3ccc(F)cc3)ns2)CC1` [Compound 138, 1-(3-chlorobenzoyl)-4-[3-(4-fluorobenzyl)-1,2,4-thiadiazol-5-yl]piperazine], the “%I” value came to 81%. The compound further came in with a half-maximal effective concentration (EC50) (10 point curves in duplicate) of 0.36 µg/mL (≈ 0.863 µM).
On to `CC1CN(c2nc(Cc3ccc(F)cc3)ns2)CCN1C(=O)c1ccc([N+](=O)[O-])cc1Cl` (stereo not shown) [Compound 177, 1-(2-chloro-4-nitrobenzoyl)-4-[3-(4-fluorobenzyl)-1,2,4-thiadiazol-5-yl]-2-methylpiperazine], for which the “%I” value amounted to 77%.
With `Cc1ccc(Cc2nsc(N3CCN(S(=O)(=O)c4cccc5ccccc45)CC3)n2)cc1` [Compound 35, 1-[1-naphtylsulfonyl]-4-[3-(4-methylbenzyl)-1,2,4-thiadiazol-5-yl]piperazine], the “%I” value was found to be 47%. Further, it took 0.0472 µg/mL (≈ 0.102 µM) to reach a half-maximal effect (10 point curves in duplicate) (EC50).
On to `Cc1ccc(Cc2nsc(N3CCN(C(=O)c4ccc(F)cc4)C(C)C3)n2)cc1` (stereo not shown) [Compound 151, 1-(4-fluorobenzoyl)-4-[3-(4-methylbenzyl)-1,2,4-thiadiazol-5-yl]-2-methylpiperazine], for which the “%I” value is 73%. Under “10 point curves in duplicate”, this compound registered an EC50 of 1.14 µg/mL (≈ 2.78 µM).
Regarding `Cc1ccc(C(=O)N2CCN(c3nc(Cc4ccc(F)cc4)ns3)CC2C)cc1` (stereo not shown) [Compound 139, 1-(4-methylbenzoyl)-4-[3-(4-fluorobenzyl)-1,2,4-thiadiazol-5-yl]-2-methylpiperazine], the “%I” value came to 87%. The compound also registered an EC50 (10 point curves in duplicate) of 0.4 µg/mL (≈ 0.974 µM).
With `COc1ccc(Cc2nsc(N3CCN(S(=O)(=O)c4ccc(OC)cc4)CC3)n2)cc1` [Compound 205], the “%I” value was determined as 53%. The half-maximal effective concentration (EC50) (10 point curves in duplicate) was 0.0011 µg/mL (≈ 0.00239 µM).
The matching figures for `CCC(=O)Oc1ccc(S(=O)(=O)N2CCN(c3nc(Cc4ccc(F)cc4)ns3)CC2)cc1` [Compound 200, 1-(4-propionyloxy)benzene-sulfonyl-4-[3-(4-fluoro-benzyl)-1,2,4-thiadiazol-5-yl]piperazine]: 80% and 0.051 µg/mL (≈ 0.104 µM).
The matching figures for `O=C(c1ccc(F)cc1)N1CCN(c2nc(Cc3ccc(Cl)cc3)ns2)CC1` [Compound 153, 1-(4-fluorobenzoyl)-4-[3-(4-chlorobenzyl)-1,2,4-thiadiazol-5-yl]piperazine]: 53% and 1.44 µg/mL (≈ 3.45 µM).
Regarding `CCOc1ccccc1N1CCN(c2nc(Cc3ccc(F)cc3)ns2)CC1` [Compound 186, 1-(2-ethoxyphenyl)-4-[3-(4-fluorobenzyl)-1,2,4-thiadiazol-5-yl]piperazine], the “%I” value turned out to be 94%. For the setting “10 point curves in duplicate”, the EC50 was 2.05 µg/mL (≈ 5.14 µM).
For `CC1CN(c2nc(Cc3ccc(F)cc3)ns2)CCN1C(=O)c1ccc(Br)cc1` (stereo not shown) [Compound 135, 1-(4-bromobenzoyl)-4-[3-(4-fluorobenzyl)-1,2,4-thiadiazol-5-yl]-2-methylpiperazine] the same measures were 73% and 0.31 µg/mL (≈ 0.652 µM).
On to `COc1cccc(Cc2nsc(N3CCN(S(=O)(=O)c4ccc(Br)cc4)CC3)n2)c1` [Compound 207], for which the “%I” value came out at 83%. The compound further showed an EC50 (10 point curves in duplicate) of 0.028 µg/mL (≈ 0.055 µM).
For `COc1cccc(Cc2nsc(N3CCN(C(=O)c4ccc(C(F)(F)F)cc4)C(C)C3)n2)c1` (stereo not shown) [Compound 168, 1-(4-trifluoromethylbenzoyl)-4-[3-(3-methoxybenzyl)-1,2,4-thiadiazol-5-yl]-2-methylpiperazine], the “%I” value is listed as 91%.
Regarding `CCCCCCCCS(=O)(=O)N1CCN(c2nc(Cc3ccc(C)cc3)ns2)CC1` [Compound 82, 1-(octylsulfonyl)-4-[3-(4-methylbenzyl)-1,2,4-thiadiazol-5-yl]piperazine], the “%I” value is on record as 50%. Where the note is “10 point curves in duplicate”, this compound yielded an EC50 of 1.58 µg/mL (≈ 3.51 µM).
With `CC1CN(c2nc(Cc3ccc(F)cc3)ns2)CCN1S(=O)(=O)c1ccc(F)cc1` (stereo not shown) [Compound 59, 1-[4-fluorophenylsulfonyl]-4-[3-(4-fluorobenzyl)-1,2,4-thiadiazol-5-yl]-2-methylpiperazine], the “%I” value came out at 42%.
Consider `CC1CN(c2nc(Cc3ccc(F)cc3)ns2)CCN1C(=O)c1ccc(C(C)(C)C)cc1` (stereo not shown) [Compound 128, 1-(4-tert-butylbenzoyl)-4-[3-(4-fluorobenzyl)-1,2,4-thiadiazol-5-yl]-2-methylpiperazine], for which the “%I” value was 95%. For the setting “10 point curves in duplicate”, this compound returned an EC50 of 0.24 µg/mL (≈ 0.53 µM).
The matching figures for `O=S(=O)(c1ccc2ccccc2c1)N1CCN(c2nc(Cc3ccc(Cl)cc3)ns2)CC1` [Compound 52, 1-[2-naphtylsulfonyl]-4-[3-(4-chlorobenzyl)-1,2,4-thiadiazol-5-yl]piperazine]: 104% and 0.1 µg/mL (≈ 0.206 µM).
On to `Cc1ccc(Cc2nsc(N3CCN(S(=O)(=O)c4ccc(Cl)cc4)CC3)n2)cc1` [Compound 66, 1-[4-chlorophenylsulfonyl]-4-[3-(4-methylbenzyl)-1,2,4-thiadiazol-5-yl]piperazine], for which the “%I” value worked out at 81%.
“3-phenyl-N-{2-[4-[3-(4-fluorobenzyl)-1,2,4-thiadiazol-5-yl]piperazin-1-yl]ethyl}propanamide [Compound 112]”: the “%I” value is listed as 91%. Moreover, the “EC50 (µg/mL)” value (10 point curves in duplicate) is on record as 0,55 µg/mL.
`CCOc1ccc(NC(=O)N2CCN(c3nc(Cc4ccc(F)cc4)ns3)CC2C)cc1` (stereo not shown) [Compound 14, N-(4-ethoxyphenyl)-4-[3-(4-fluorobenzyl)-1,2,4-thiadiazol-5-yl]-2-methylpiperazine-1-carboxamide]: the “%I” value amounted to 70%. This compound also registered an EC50 (10 point curves in duplicate) of 1.73 µg/mL (≈ 3.8 µM).
For the compound `O=S(=O)(c1ccc(O)cc1)N1CCN(c2nc(Cc3ccc(F)cc3)ns2)CC1` [Compound 217, 1-(4-hydroxybenzenesulfonyl)-4-[3-(4-fluoro-benzyl)-1,2,4-thiadiazol-5-yl]piperazine], the “%I” value is recorded as 77%.
On to `CC1CN(c2nc(Cc3ccc(F)cc3)ns2)CCN1C(=O)c1ccccc1Br` (stereo not shown) [Compound 148, 1-(2-bromobenzoyl)-4-[3-(4-fluorobenzyl)-1,2,4-thiadiazol-5-yl]-2-methylpiperazine], for which the “%I” value came out at 56%. Under “10 point curves in duplicate”, this compound yielded an EC50 of 0.86 µg/mL (≈ 1.81 µM).
The matching figures for `Cc1ccc(Cc2nsc(N3CCN(S(=O)(=O)C(C)C)CC3)n2)cc1` [Compound 85, 1-(isopropylsulfonyl)-4-[3-(4-methylbenzyl)-1,2,4-thiadiazol-5-yl]piperazine]: 69% and 3.65 µg/mL (≈ 9.59 µM).
On to `Cc1ccc(Cc2nsc(N3CCN(S(=O)(=O)c4c(C)cc(C)cc4C)C(C)C3)n2)cc1` (stereo not shown) [Compound 45, 1-[2,4,6-trimethylphenylsulfonyl]-4-[3-(4-methylbenzyl)-1,2,4-thiadiazol-5-yl]-2-methylpiperazine], for which the “%I” value was determined as 56%. Further, the concentration giving a half-maximal response (EC50) (10 point curves in duplicate) was 1.2 µg/mL (≈ 2.55 µM).
Consider `O=C(Nc1cccc(F)c1)N1CCN(c2nc(Cc3ccc(F)cc3)ns2)CC1` [Compound 9, N-(3-fluorophenyl)-4-[3-(4-fluorobenzyl)-1,2,4-thiadiazol-5-yl]piperazine-1-carboxamide], for which the “%I” value was found to be 53%. Under “10 point curves in duplicate”, this compound gave an EC50 of 0.52 µg/mL (≈ 1.25 µM).
Turning to `O=C(Cc1ccccc1)N1CCN(c2nc(Cc3ccc(F)cc3)ns2)CC1` [Compound 1, 4-phenylacetyl-1-[3-(4-fluorobenzyl)-1,2,4-thiadiazol-5-yl]piperazine], the “%I” value came to 75%. The same compound displayed an EC50 (10 point curves in duplicate) of 0.15 µg/mL (≈ 0.378 µM).
As for `O=C(c1ccccc1)N1CCN(c2nc(Cc3ccc(F)cc3)ns2)CC1` [Compound 181, 1-benzoyl-4-[3-(4-fluorobenzyl)-1,2,4-thiadiazol-5-yl]piperazine], the “%I” value is reported as 60%.

As usually defined, the EC50 is the concentration that produces a half-maximal response. Low values mean an effect from little substance, high ones a need for much substance.
